ChEMBL document CHEMBL3797052 (Eur J Med Chem, 2016)

Assays:
Type in all cases: functional
[1] = system: SN12C; test: Antiproliferative activity against human SN12C cells assessed as cell growth at 10^-5 M after 48 hrs by sulforhodamine B assay; settings: read-out: Activity
[2] = Antiproliferative activity against human HOP92 cells assessed as cell growth at 10^-6 M after 48 hrs by sulforhodamine B assay; settings: HOP-92, 48 h, read-out: Activity
[3] = system: CCRF-CEM; test: Antiproliferative activity against human CCRF-CEM cells assessed as cell growth at 10^-5 M after 48 hrs by sulforhodamine B assay; settings: read-out: Activity
[4] = Antiproliferative activity against human UACC257 cells assessed as cell growth at 10^-4 M after 48 hrs by sulforhodamine B assay; settings: UACC-257, 48 h, read-out: Activity
[5] = Antiproliferative activity against human UACC62 cells assessed as cell growth at 10^-4 M after 48 hrs by sulforhodamine B assay; settings: UACC-62, 48 h, read-out: Activity
[6] = Antiproliferative activity against human HCT15 cells assessed as cell growth at 10^-4 M after 48 hrs by sulforhodamine B assay; settings: HCT-15, 48 h, read-out: Activity
[7] = Antiproliferative activity against human HL-60(TB) cells assessed as cell growth at 10^-5 M after 48 hrs by sulforhodamine B assay; settings: HL-60, 48 h, read-out: Activity
[8] = system: SK-MEL-2; test: Antiproliferative activity against human SK-MEL-2 cells assessed as cell growth at 10^-5 M after 48 hrs by sulforhodamine B assay; settings: SK-MEL-2, 48 h, read-out: Activity
[9] = Antiproliferative activity against human OVCAR8 cells assessed as cell growth at 10^-5 M after 48 hrs by sulforhodamine B assay; settings: OVCAR-8, 48 h, read-out: Activity
[10] = Antiproliferative activity against human RXF393 cells assessed as cell growth at 10^-5 M after 48 hrs by sulforhodamine B assay; settings: RXF 393, 48 h, read-out: Activity
[11] = system: U-251; test: Antiproliferative activity against human U251 cells assessed as cell growth at 10^-5 M after 48 hrs by sulforhodamine B assay; settings: U-251, 48 h, read-out: Activity
[12] = Antiproliferative activity against human NCI-ADR-RES cells assessed as cell growth at 10^-5 M after 48 hrs by sulforhodamine B assay; settings: read-out: Activity
[13] = Antiproliferative activity against human SKOV3 cells assessed as cell growth at 10^-5 M after 48 hrs by sulforhodamine B assay; settings: SK-OV-3, 48 h, read-out: Activity
[14] = system: HT-29; test: Antiproliferative activity against human HT-29 cells assessed as cell growth at 10^-5 M after 48 hrs by sulforhodamine B assay; settings: HT-29, 48 h, read-out: Activity
[15] = Antiproliferative activity against human TK10 cells assessed as cell growth at 10^-5 M after 48 hrs by sulforhodamine B assay; settings: TK-10, 48 h, read-out: Activity
[16] = Antiproliferative activity against human UACC257 cells assessed as cell growth at 10^-5 M after 48 hrs by sulforhodamine B assay; settings: UACC-257, 48 h, read-out: Activity
[17] = system: MCF7; test: Antiproliferative activity against human MCF7 cells assessed as cell growth at 10^-5 M after 48 hrs by sulforhodamine B assay; settings: MCF7, 48 h, read-out: Activity
[18] = Antiproliferative activity against human OVCAR4 cells assessed as cell growth at 10^-5 M after 48 hrs by sulforhodamine B assay; settings: OVCAR-4, 48 h, read-out: Activity
[19] = Antiproliferative activity against human SW620 cells assessed as cell growth at 10^-5 M after 48 hrs by sulforhodamine B assay; settings: SW-620, 48 h, read-out: Activity
[20] = system: NCI-H322M; test: Antiproliferative activity against human NCI-H322M cells assessed as cell growth at 10^-7 M after 48 hrs by sulforhodamine B assay; settings: read-out: Activity
[21] = system: NCI-H23; test: Antiproliferative activity against human NCI-H23 cells assessed as cell growth at 10^-5 M after 48 hrs by sulforhodamine B assay; settings: NCI-H23, 48 h, read-out: Activity
[22] = Antiproliferative activity against human Caki1 cells assessed as cell growth at 10^-5 M after 48 hrs by sulforhodamine B assay; settings: CAKI-1, 48 h, read-out: Activity
[23] = system: A498; test: Antiproliferative activity against human A498 cells assessed as cell growth at 10^-5 M after 48 hrs by sulforhodamine B assay; settings: A498, 48 h, read-out: Activity
[24] = system: M14; test: Antiproliferative activity against human M14 cells assessed as cell growth at 10^-5 M after 48 hrs by sulforhodamine B assay; settings: M14, 48 h, read-out: Activity
[25] = Antiproliferative activity against human HL-60(TB) cells assessed as cell growth at 10^-8 M after 48 hrs by sulforhodamine B assay; settings: HL-60, 48 h, read-out: Activity
[26] = Antiproliferative activity against human UO31 cells assessed as cell growth at 10^-4 M after 48 hrs by sulforhodamine B assay; settings: UO-31, 48 h, read-out: Activity
[27] = system: ACHN; test: Antiproliferative activity against human ACHN cells assessed as cell growth at 10^-5 M after 48 hrs by sulforhodamine B assay; settings: read-out: Activity
[28] = Antiproliferative activity against human SF268 cells assessed as cell growth at 10^-5 M after 48 hrs by sulforhodamine B assay; settings: SF-268, 48 h, read-out: Activity
[29] = system: K562; test: Antiproliferative activity against human K562 cells assessed as cell growth at 10^-5 M after 48 hrs by sulforhodamine B assay; settings: K562, 48 h, read-out: Activity
[30] = system: U-251; test: Antiproliferative activity against human U251 cells assessed as growth inhibition after 48 hrs by sulforhodamine B assay; settings: U-251, 48 h
[31] = system: NCI-H460; test: Antiproliferative activity against human NCI-H460 cells assessed as growth inhibition after 48 hrs by sulforhodamine B assay; settings: NCI-H460, 48 h
[32] = Antiproliferative activity against human SF539 cells assessed as cell growth at 10^-5 M after 48 hrs by sulforhodamine B assay; settings: SF-539, 48 h, read-out: Activity
[33] = Antiproliferative activity against human RPMI8226 cells assessed as cell growth at 10^-5 M after 48 hrs by sulforhodamine B assay; settings: RPMI-8226, 48 h, read-out: Activity
[34] = Antiproliferative activity against human TK10 cells assessed as cell growth at 10^-8 M after 48 hrs by sulforhodamine B assay; settings: TK-10, 48 h, read-out: Activity
[35] = system: SK-MEL-28; test: Antiproliferative activity against human SK-MEL-28 cells assessed as cell growth at 10^-5 M after 48 hrs by sulforhodamine B assay; settings: SK-MEL-28, 48 h, read-out: Activity
[36] = system: MDA-MB-468; test: Antiproliferative activity against human MDA-MB-468 cells assessed as cell growth at 10^-5 M after 48 hrs by sulforhodamine B assay; settings: MDA-MB-468, 48 h, read-out: Activity
[37] = system: SK-MEL-5; test: Antiproliferative activity against human SK-MEL-5 cells assessed as cell growth at 10^-5 M after 48 hrs by sulforhodamine B assay; settings: SK-MEL-5, 48 h, read-out: Activity

Structure (SMILES): CNC(=O)c1cc(Oc2ccc3nc(NC(=O)Nc4ccc(Cl)c(Cl)c4)sc3c2)ccn1
- growth at 10 µM [1]: 14%
- growth at 1 µM [2]: 119%
- growth at 10 µM [3]: 76%
- growth at 100 µM [4]: 7%
- growth at 100 µM [5]: -20%
- growth at 100 µM [6]: 26%
- growth at 10 µM [7]: 95%
- growth at 10 µM [8]: -30%
- growth at 10 µM [9]: -40%
- growth at 10 µM [10]: -74%
- growth at 10 µM [11]: -84%
- growth at 10 µM [12]: -43%
- growth at 10 µM [13]: -74%
- growth at 10 µM [14]: -61%
- growth at 10 µM [15]: -4%
- growth at 10 µM [16]: -23%
- growth at 10 µM [17]: 4%
- growth at 10 µM [18]: -68%
- growth at 10 µM [19]: 42%
- growth at 0.1 µM [20]: 87%
- growth at 10 µM [21]: 2%
- growth at 10 µM [22]: -25%
- growth at 10 µM [23]: -25%
- growth at 10 µM [24]: -47%
- growth at 0.01 µM [25]: 102%
- growth at 100 µM [26]: -72%
- growth at 10 µM [27]: -30%
- growth at 10 µM [28]: -57%
- growth at 10 µM [29]: 55%
- GI50 [30]: 1.83 µM
- LC50 [30]: 6.53 µM
- TGI [30]: 3.46 µM
- GI50 [31]: 2.43 µM
- LC50 (concentration killing 50% of cells) [31]: > 100 µM
- TGI [31]: 5.32 µM
- growth at 10 µM [32]: -49%
- growth at 10 µM [33]: 9%
- growth at 0.01 µM [34]: 107%
- growth at 10 µM [35]: -72%
- growth at 10 µM [36]: -36%
- growth at 10 µM [37]: -32%

Structure (SMILES): CNC(=O)c1cc(Oc2ccc3nc(NC(=O)c4cc(C(F)(F)F)cc(C(F)(F)F)c4)sc3c2)ccn1
- growth at 10 µM [1]: 6%
- growth at 1 µM [2]: 68%
- growth at 10 µM [3]: 13%
- growth at 100 µM [4]: -45%
- growth at 100 µM [5]: -56%
- growth at 100 µM [6]: -29%
- growth at 10 µM [7]: -47%
- growth at 10 µM [8]: -19%
- growth at 10 µM [9]: 8%
- growth at 10 µM [10]: -8%
- growth at 10 µM [11]: 12%
- growth at 10 µM [12]: 15%
- growth at 10 µM [13]: -10%
- growth at 10 µM [14]: 15%
- growth at 10 µM [15]: 8%
- growth at 10 µM [16]: -10%
- growth at 10 µM [17]: 17%
- growth at 10 µM [18]: 10%
- growth at 10 µM [19]: 42%
- growth at 0.1 µM [20]: 93%
- growth at 10 µM [21]: 15%
- growth at 10 µM [22]: 2%
- growth at 10 µM [23]: -35%
- growth at 10 µM [24]: 15%
- growth at 0.01 µM [25]: 92%
- growth at 100 µM [26]: -51%
- growth at 10 µM [27]: 6%
- growth at 10 µM [28]: 11%
- growth at 10 µM [29]: 7%
- GI50 [30]: 3.65 µM
- LC50 [30]: 53.6 µM
- TGI [30]: 13.7 µM
- GI50 [31]: 3.83 µM
- LC50 (concentration killing 50% of cells) [31]: 58.9 µM
- TGI [31]: 14.6 µM
- growth at 10 µM [32]: 12%
- growth at 10 µM [33]: 10%
- growth at 0.01 µM [34]: 95%
- growth at 10 µM [35]: 22%
- growth at 10 µM [36]: 5%
- growth at 10 µM [37]: -66%
